Assay results reported in patent EP0462621A2, “Use of particular compounds for manufacture of pharmaceutical formulations for treatment against various parasites, mycoplasmas, other indications and other infections” (Prendergast, Patrick Thomas, priority 1990, dated 1991).

Experiments:
L donovani [1] = test: Amastigote-promastigote (AM-PRO) transformation, in-vitro; format: cell-based; details: Ld.
L donovani [2] = test: Amastigotes (AM) in cell lines, in-vitro; format: cell-based; details: Ld., Amastigote; note: key: - no/poor activity,; + fair/moderate activity,; ++ good/excellent activity
Source text: (§1) Amastigotes of Leishmania can be cultivated in a wide range of mammalian cells, some of which may be used in in-vitro screens. These include (1) a Sticker dog sarcoma (fibroblast) cell line, (2) transformed rodent macrophage cell lines, (3) primary isolated mouse peritoneal macrophages (MP mo), and (4) human monocyte-derived macrophages (HM mo). The methods are similar for all models. Amastigote or promastigote infected cells are maintained in a medium containing the drug for 4-7 days, at 37 C for L. donovani and 33-35 C for L. major and L. mexicana. Drug activity is then assessed by counting (I) the number of infected host cells and/or (II) the number of amastigotes/100 host cells.
(§2) In-vitro and in-vivo models were used to test activities of a selection of many compounds. Those activities are summarized in Tables 1-3, showing variation between systems and species. Activities measured in the MP mo and HM mo models have shown the best correlation with results obtained in hamster and mouse models.

L major/L mexicana = test: Amastigotes (AM) in cell lines, in-vitro; format: cell-based; details: Lm., Amastigote; note: key: - no/poor activity,; + fair/moderate activity,; ++ good/excellent activity
Source text: as §1, §2

T lymphocytes = test: Lymphocyte blastogenesis assay, T lymphocytes (PHA); format: cell-based, human
Protocol: (§3) T and B lymphocytes from normal human donors were incubated for 30 minutes at various dose levels of the compounds indicated. The lymphocytes were added in triplicate wells in gentamicin and phytohemagglutinin (PHA) (a T cell mitogen), pokeweed mitogen (PWM) (a B cell mitogen) and allogeneic mononuclear cells (mixed leukocyte cultures; MLC) or media containing the above additives. The lymphocyte blastogenesis assay is described in detail below.
The data are represented as the mean of the three replicates. The results are presented in Charts la(e) (i) and la(e) (ii) (Figs. 1 and 2). […] A reduction of both T lymphocytes' abilities to proliferate was obtained when 100 u.M or greater concentrations of IPA was added to the cell cultures. Proliferative activity of T lymphocytes by 25% at the 30 u.M concentration of IPA in the experiment.
(§4) • 1. Mononuclear cells are separated from whole blood by differential centrifugation using a synthetic separation medium, or are thawed from a cryopreserved preparation. The cells are washed and resuspended in media (RPMI - 1640, L-Glutamine 2mM, Herpes Buffer 25mM, Gentamicin 50 ug/ml, Human AB Serum-heat inactivated (56°, 30°) 20%). • 2. A viable cell count is determined. • 3. Cell concentration is adjusted to 2 x 10^6 /ml in media. • 4. The cell suspension is added to wells of a 96-well flat bottom plate in 0.1 ml aliquots (2 x 10^5 cells). • 5. The selected mitogens and/or antigens (in media without serum) are added to the cells in the wells also in 0.1 ml aliquots. • 6. The cultures are incubated for 3-7 days (depending upon the mitogen or antigen) at 37° C in a humidified 5% C02 atmosphere. • 7. Six to eight hours before termination of cultures 0.05 ml (1 µCi) of ^3HTdR sp. act 6.7 Ci/mM (20 µCi/ml stock) is added to each well. • 8. At termination of cultures the cells are harvested onto strips of scintillation-grade fibreglass paper using a multiple sample harvester. • 9. Perforated disks from the fibreglass paper of the harvested cultures are placed each into scintillation vials to which is then added 5 ml of toluene based scintillation cocktail. • 10. The vials are counted in a liquid scintillation counter for one minute where the amount of incorporated ^3HTdR is determined.
net CPM = xCPM of mitogen/antigen cultures - xCPM of media cultures.

human mononuclear cells = test: Mixed leukocyte culture (MLC) reaction; format: cell-based
Protocol: as §3
Mixed leukocyte culture (MLC) reactions may be used to evaluate the ability of human mononuclear cells to recognize and immunologically react to human histocompatibility antigen (measurement of the ability of the cells to mount a primary immune response to an antigen). Cultures of one set of human mononuclear cells were reacted with mononuclear cells from an unrelated donor in lymphocyte blastogenesis assays and the proliferation of the first set of cells was quantitated. The results are presented in Charts la(e) (v) and la(e) (vi) (Figs. 5 and 6). Again, as with lymphocyte blastogenesis with mitogens, the MLC was run in replicates of three and a mean value obtained.
as §4, with “Six to eight hours before termination of cultures 0.05 ml (1 µCi) of ^3HTdR sp. act 6.7 Ci/mM (20 µCi/ml stock) is added to each well. • 8. At termination of cultures the cells are harvested onto strips of scintillation-grade fibreglass paper using a multiple sample harvester. • 9. Perforated disks from the fibreglass paper of the harvested cultures are placed each into scintillation vials to which is then added 5 ml of toluene based scintillation cocktail. • 10.” left out

H9-HIV-1 cells = test: Cytotoxicity in persistently infected H9-HIV-1 cells, viable cell number; format: cell-based, human; details: 30 u.M and lower; up to 30 days
CAEV = test: Experiment la(c): Himalayan Tahr ovary cells, CAEV, p28 radioimmunoassay; format: cell-based, caprine arthritis encephalitis virus (CAEV); details: as read from Figure 15
Source text: A procedure similar to that followed in Experiment la (a) was followed using Himalayan Tahr ovary cells exposed to caprine arthritis encephalitis virus (CAEV), a lentivirus related to HIV-1 which causes leukoen- cephalitis and arthritis in goats. A radioimmunoassay to detect CAEV p28 was used to determine the presence of the virus.

cytomegilovirus = test: M413 cells, CMV; format: cell-based, cytomegalovirus (CMV)
Protocol: Confluent monolayers of M413 cells (a type of dipliod human fibroblast cells) in 48 well microtiter plates were used. They were grown in Dulbecco's MEM (minimum essential medium) supplemented with 10% fetal bovine serum and 50 ug/ml gentamicin.
Stock cytomegalovirus (CMV) was diluted in a series of 10-fold dilutions in the above medium, and […] amounts were added to the wells of the microtiter plates and allowed to absorb virus for 90 minutes at 37 °C.
Unabsorbed virus was removed by aspiration and 0.5 ml of medium containing dilutions of drug was added to duplicate wells at each concentration of virus.
After incubating for 5 days, fresh medium was added to each well, no additional drug being included, and the plates were scored for cytopathic effects the next day. The viruses produce characteristic enlarged rounded cells in a cellular background that is completely devoid of such cells.
The data were expressed as the reciprocal of the greatest dilution producing any of the characteristic rounded cells (the "titer"), and the percent inhibition was calculated by comparing the experimental titer with the control titer, with intermediate results interpreted as those of Experiment la(a).
The procedure described for Experiment la(j) was followed with cytomegalovirus (CMV) substituted for MAB to HSV-1.

HIV-1 and CAEV = test: Inhibition of virus replication, summary over viruses and cell lines of Figure 15; format: cell-based; details: depending upon the virus and cell line
Protocol: Selected results presented in Tables la(a), la(b) and la(c) are plotted in Figure 15.
It is apparent from Figure 15 that IPA appears to inhibit the replication of HIV-1 and CAEV at concentrations ranging from 3 to 30 µM and above. Without appropriate toxicity data it is not possible to calculate the therapeutic index at the various drug concentrations. Nevertheless, the IC50 can be seen to vary between approximately 2-6 u.M, depending upon the virus and cell line, and the ICso varies between 3-30 µM in these experiments.

SMILES: CC(C)=CCNc1ncnc2c1ncn2[C@@H]1O[C@H](CO)[C@@H](O)[C@H]1O [IPA, N^6-(Δ^2-isopentenyl) adenosine]
- Activity, AM-PRO transform-ation (L donovani [1]): + +
- Activity, AM in cell lines (L donovani [2]): -
- Activity, AM in cell lines (L major/L mexicana): +
- T lymphocyte responsiveness (T lymphocytes; 10 µM, third experiment): Increased
- T lymphocyte function (T lymphocytes; 1000 µM down to 10 µM, third experiment (Figs. 7 and 8)): reductions
- T lymphocyte proliferation (T lymphocytes; 0.1 - 10 µM, first experiment): No effect or an increase
- reduction in T lymphocyte function (T lymphocytes; 30 -35 u.M, third experiment): ~25%
- T lymphocyte proliferation (T lymphocytes; 30 down to 10 u.M, second experiment (Figs. 3 and 4)): No appreciable reduction
- Proliferative activity of T lymphocytes, change (T lymphocytes; 30 u.M, first experiment): 25%
- T lymphocytes' abilities to proliferate (T lymphocytes; 100 u.M or greater, first experiment (Figs. 1 and 2)): reduction
- reduction in MLC reactivity (human mononuclear cells; 1 µM): 50%
- MLC reactivity (human mononuclear cells; 10 µM): No effect
- MLC reactivity (human mononuclear cells; 100 u.M): slight increase
- cytotoxicity, viable cell number (H9-HIV-1 cells): No cytotoxicity
- IC50 (CAEV): 8 µM
- IC90 (CAEV): 30 µM
- levels of cytomegilovirus in cells in-vitro (cytomegilovirus): reduces
- ICso (HIV-1 and CAEV): 3 to 30 µM
- IC50 (HIV-1 and CAEV; approximately): 2 to 6 µM
